Results as given in the supplement of paper PMC10307832.

Assays:
Assay in all cases: relative viability (nuclei count vs DMSO), 5 days (fraction); higher = more cells survive
Palbociclib + Pemetrexed = compound: CC(=O)c1c(C)c2cnc(Nc3ccc(N4CCNCC4)cn3)nc2n(C2CCCC2)c1=O [Palbociclib] + Nc1nc2[nH]cc(CCc3ccc(C(=O)N[C@@H](CCC(=O)O)C(=O)O)cc3)c2c(=O)[nH]1 [Pemetrexed] (partner 0.2 µM)
Procedure, shortened: (§1)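 Relative viability equals treated-well nuclei counts divided by vehicle-well nuclei counts. Counts came from 4× images of lung cancer cell lines grown in 1536-well plates for 5 days after pin-tool dosing on the day after seeding. Dosing used one drug alone or a fixed anchor-drug dose plus five library-drug doses (not always all listed) in √10 steps, and values are medians of duplicate plates.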

Palbociclib + Foretinib = compound: CC(=O)c1c(C)c2cnc(Nc3ccc(N4CCNCC4)cn3)nc2n(C2CCCC2)c1=O [Palbociclib] + COc1cc2c(Oc3ccc(NC(=O)C4(C(=O)Nc5ccc(F)cc5)CC4)cc3F)ccnc2cc1OCCCN1CCOCC1 [Foretinib] (partner 0.25 µM)
Procedure, shortened: as §1

Palbociclib + Vorinostat = compound: CC(=O)c1c(C)c2cnc(Nc3ccc(N4CCNCC4)cn3)nc2n(C2CCCC2)c1=O [Palbociclib] + O=C(CCCCCCC(=O)Nc1ccccc1)NO [Vorinostat] (partner 1 µM)
Procedure, shortened: as §1

Cell Line | relative viability (Palbociclib + Pemetrexed; first compound 0.01 µM) | relative viability (Palbociclib + Pemetrexed; first compound 0.03162 µM) | relative viability (Palbociclib + Pemetrexed; first compound 0.1 µM) | relative viability (Palbociclib + Pemetrexed; first compound 0.3162 µM) | relative viability (Palbociclib + Pemetrexed; first compound 1 µM) | relative viability (Palbociclib + Foretinib; first compound 0.01 µM) | relative viability (Palbociclib + Foretinib; first compound 0.1 µM) | relative viability (Palbociclib + Foretinib; first compound 0.3162 µM) | relative viability (Palbociclib + Foretinib; first compound 1 µM) | relative viability (Palbociclib + Vorinostat; first compound 0.01 µM) | relative viability (Palbociclib + Vorinostat; first compound 0.03162 µM) | relative viability (Palbociclib + Vorinostat; first compound 0.1 µM) | relative viability (Palbociclib + Vorinostat; first compound 0.3162 µM) | relative viability (Palbociclib + Vorinostat; first compound 1 µM) | relative viability (Palbociclib + Foretinib; first compound 0.03162 µM)
NCI-H596 | 0.514 | 0.617 | 0.514 | 0.52 | 0.497 | 0.996 | 0.836 | 0.821 | 0.953 | 0.656 | 0.655 | 0.589 | 0.768 | 0.57 | 
NCI-H2170 | 0.269 | 0.277 | 0.224 | 0.242 | 0.222 | 1.03 | 0.955 | 0.889 | 0.852 | 0.841 | 0.515 | 0.694 | 0.675 | 0.447 | 0.969
NCI-H2405 | 1.06 | 1.14 | 0.941 | 0.799 | 0.523 | 1.02 | 0.884 | 0.822 | 0.675 | 1.01 | 1 | 0.82 | 0.837 | 0.631 | 0.972
HCC-366 | 0.155 |  | 0.162 | 0.138 | 0.155 | 0.919 | 0.893 | 0.953 | 0.797 | 0.388 |  | 0.289 | 0.213 | 0.135 | 
NCI-H1975 | 0.293 | 0.284 | 0.276 | 0.294 | 0.256 | 0.932 | 0.899 | 0.828 | 0.81 | 0.712 | 0.649 | 0.597 | 0.579 | 0.469 | 0.853
NCI-H1755 | 0.429 | 0.394 | 0.385 | 0.467 | 0.397 | 0.928 | 0.819 | 0.801 | 0.578 | 0.721 | 0.62 | 0.489 | 0.606 | 0.491 | 0.893
COR-L23 | 0.183 | 0.202 | 0.201 | 0.191 | 0.203 | 0.95 | 0.911 | 0.729 | 0.58 | 0.461 | 0.346 | 0.328 | 0.244 | 0.223 | 0.745
PC-3 [JPC-3] | 1.14 | 1.06 | 0.952 | 0.878 | 0.428 | 1.1 | 0.884 | 0.855 | 0.64 | 0.817 | 0.673 | 0.699 | 0.507 | 0.381 | 0.955
NCI-H2126 | 0.725 | 0.581 | 0.509 | 0.51 | 0.345 | 1.28 | 0.904 | 0.78 | 0.603 | 0.718 | 0.381 | 0.535 | 0.545 | 0.325 | 0.93
NCI-H1944 | 0.598 | 0.57 | 0.589 | 0.477 | 0.367 | 0.915 | 0.768 | 0.756 | 0.577 | 0.579 | 0.456 | 0.399 | 0.475 | 0.343 | 0.807
NCI-H647 | 0.167 | 0.171 | 0.2 | 0.179 | 0.188 | 1.21 | 1.13 | 1.07 | 0.964 | 0.576 | 0.313 | 0.616 | 0.409 | 0.458 | 1.17
NCI-H1395 | 0.797 | 0.812 | 0.786 | 0.838 | 0.65 | 0.867 | 0.846 | 0.828 | 0.713 | 0.844 | 0.705 | 0.602 | 0.724 | 0.496 | 0.876
LCLC-103H | 0.432 | 0.495 | 0.484 | 0.443 | 0.412 | 0.782 | 0.8 | 0.522 | 0.481 | 0.743 | 0.512 | 0.62 | 0.668 | 0.445 | 0.619
EPLC-272H | 0.278 | 0.322 | 0.408 | 0.539 | 0.512 | 0.794 | 0.572 | 0.689 | 0.435 | 0.535 | 0.647 | 0.46 | 0.401 | 0.245 | 
EKVX | 0.392 |  | 0.353 | 0.317 | 0.243 | 0.907 | 0.748 | 0.757 | 0.463 | 0.702 | 0.509 | 0.625 | 0.549 | 0.483 | 0.412
NCI-H1915 | 0.494 |  | 0.446 | 0.413 | 0.331 | 1.04 | 1.06 | 0.95 | 0.905 | 0.487 |  | 0.438 | 0.525 | 0.378 | 0.968
NCI-H2347 | 0.39 | 0.407 | 0.368 | 0.413 | 0.386 | 0.917 | 0.844 |  | 0.546 | 0.558 | 0.603 | 0.424 | 0.487 | 0.4 | 
NCI-H2228 | 0.312 | 0.352 | 0.337 | 0.341 | 0.346 | 0.773 | 0.867 | 0.787 | 0.781 | 0.566 | 0.673 | 0.649 | 0.717 | 0.398 | 0.782
NCI-H1299 |  |  |  |  |  | 1.05 | 1.02 | 0.942 | 0.754 |  |  |  |  |  | 0.996
NCI-H650 | 0.946 |  | 0.7 | 0.725 | 0.483 | 1.05 | 0.839 | 0.824 | 0.639 | 0.537 |  | 0.366 | 0.359 | 0.314 | 0.862
PC-14 | 0.143 | 0.142 | 0.137 | 0.148 | 0.158 | 0.944 | 0.819 | 0.868 | 0.733 | 0.804 | 0.629 | 0.576 | 0.673 | 0.416 | 0.865
NCI-H838 | 0.354 | 0.234 | 0.242 | 0.29 | 0.18 | 1.03 | 0.71 | 0.823 | 0.515 | 0.71 | 0.623 | 0.543 | 0.478 | 0.314 | 0.955
NCI-H727 |  |  |  |  |  | 0.879 | 0.636 | 0.596 | 0.5 | 1.25 | 1.03 | 1.01 | 1.01 | 0.909 | 0.727
ABC-1 |  |  |  |  |  | 0.963 | 0.852 | 0.763 | 0.709 | 1.18 | 1.03 | 0.552 | 1.03 | 0.453 | 0.808
